Laboratory results from ChEMBL document CHEMBL1201862, “PubChem BioAssay data set” (2004).
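Interpolation was linear, between the two tested concentrations surrounding the appropriate level; five concentrations were tested over 48 hours in 96-well plates. GI50: concentration for 50% inhibition of growth.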 Active and inactive are the calls of the source. Cut-off read from the data, not from the text of the source: active = GI50 up to about 1.1 µM and inactive = higher.

Key:
Test in all cases: growth of human tumour cells (NCI), 48 h
DMS-114 = test system: DMS-114
HCT-116 = test system: HCT-116
KM12 = test system: KM12
TK-10 = test system: TK-10
DU-145 = test system: DU-145
OVCAR-8 = test system: OVCAR-8
SF-539 = test system: SF-539
HOP-92 = test system: HOP-92
SF-268 = test system: SF-268
NCI/ADR-RES = test system: NCI/ADR-RES
DMS-273 = test system: DMS-273
OVCAR-4 = test system: OVCAR-4
SK-MEL-2 = test system: SK-MEL-2
SNB-19 = test system: SNB-19
HL-60 = test system: HL-60
RXF 393 = test system: RXF 393
UACC-257 = test system: UACC-257
ACHN = test system: ACHN
LOX IMVI = test system: LOX IMVI
HOP-62 = test system: HOP-62
HOP-18 = test system: HOP-18
MDA-MB-435 = test system: MDA-MB-435
MDA-N = test system: MDA-N
HT-29 = test system: HT-29
KM-20L2 = test system: KM-20L2
NCI-H226 = test system: NCI-H226
SN12C = test system: SN12C
OVCAR-3 = test system: OVCAR-3
K562 = test system: K562
DLD-1 = test system: DLD-1
CAKI-1 = test system: CAKI-1
XF498 = test system: XF498
OVCAR-5 = test system: OVCAR-5
786-0 = test system: 786-0
MDA-MB-231 = test system: MDA-MB-231
SNB-75 = test system: SNB-75
CCRF-CEM = test system: CCRF-CEM
SK-MEL-5 = test system: SK-MEL-5
UO-31 = test system: UO-31
U-251 = test system: U-251
SK-OV-3 = test system: SK-OV-3
MOLT-4 = test system: MOLT-4
Malme-3M = test system: Malme-3M
PC-3 = test system: PC-3
SF-295 = test system: SF-295
M14 = test system: M14
RPMI-8226 = test system: RPMI-8226
IGROV-1 = test system: IGROV-1
HCT-15 = test system: HCT-15
Hs-578T = test system: Hs-578T
HCC 2998 = test system: HCC 2998
UACC-62 = test system: UACC-62
MCF7 = test system: MCF7
A498 = test system: A498
BT-549 = test system: BT-549
T47D = test system: T47D
NCI-H522 = test system: NCI-H522
NCI-H23 = test system: NCI-H23
NCI-H460 = test system: NCI-H460
COLO 205 = test system: COLO 205
EKVX = test system: EKVX
A549 = test system: A549
M19-MEL = test system: M19-MEL
SK-MEL-28 = test system: SK-MEL-28
SW-620 = test system: SW-620
SNB-78 = test system: SNB-78
SR = test system: SR

`COc1cccc2c1C(=O)c1c(O)c3c(c(O)c1C2=O)C[C@@](O)(/C(C)=N/NC(=O)c1ccccc1)C[C@@H]3OC1CC(N)C(O)C(C)O1` (some centres not stated) was tested, and the GI50 (DMS-114) was 202 nM (active), the GI50 (HCT-116) was 190 nM (active) and the GI50 (KM12) was 392 nM (active). For the same compound, the GI50 (TK-10) was 530 nM (active), the GI50 (DU-145) was 135 nM (active) and the GI50 (OVCAR-8) was 283 nM (active). For the same compound, the GI50 (SF-539) was 261 nM (active), the GI50 (HOP-92) was 114 nM (active) and the GI50 (SF-268) was 290 nM (active). For the same compound, the GI50 (NCI/ADR-RES) was 16300 nM (inactive), the GI50 (DMS-273) was 157 nM (active) and the GI50 (OVCAR-4) was 1170 nM (inactive). For the same compound, the GI50 (SK-MEL-2) was 505 nM (active), the GI50 (SNB-19) was 179 nM (active) and the GI50 (HL-60) was 60.4 nM (active). For the same compound, the GI50 (RXF 393) was 330 nM (active), the GI50 (UACC-257) was 594 nM (active) and the GI50 (ACHN) was 80.2 nM (active). For the same compound, the GI50 (LOX IMVI) was 93.5 nM (active), the GI50 (HOP-62) was 122 nM (active) and the GI50 (HOP-18) was 454 nM (active). For the same compound, the GI50 (MDA-MB-435) was 362 nM (active), the GI50 (MDA-N) was 308 nM (active) and the GI50 (HT-29) was 589 nM (active). For the same compound, the GI50 (KM-20L2) was 807 nM (active), the GI50 (NCI-H226) was 104 nM (active) and the GI50 (SN12C) was 155 nM (active). The GI50 (OVCAR-3) was 624 nM (active), the GI50 (K562) was 233 nM (active) and the GI50 (DLD-1) was 1690 nM (inactive). For the same compound, the GI50 (CAKI-1) was 141 nM (active), the GI50 (XF498) was 80.3 nM (active) and the GI50 (OVCAR-5) was 643 nM (active). For the same compound, the GI50 (786-0) was 56.2 nM (active), the GI50 (MDA-MB-231) was 490 nM (active) and the GI50 (SNB-75) was 373 nM (active). For the same compound, the GI50 (CCRF-CEM) was 59.2 nM (active), the GI50 (SK-MEL-5) was 161 nM (active) and the GI50 (UO-31) was 1770 nM (inactive). For the same compound, the GI50 (U-251) was 147 nM (active), the GI50 (SK-OV-3) was 583 nM (active) and the GI50 (MOLT-4) was 32.4 nM (active). For the same compound, the GI50 (Malme-3M) was 213 nM (active), the GI50 (PC-3) was 171 nM (active) and the GI50 (SF-295) was 195 nM (active). For the same compound, the GI50 (M14) was 203 nM (active), the GI50 (RPMI-8226) was 137 nM (active) and the GI50 (IGROV-1) was 262 nM (active). For the same compound, the GI50 (HCT-15) was 1840 nM, the GI50 (Hs-578T) was 256 nM (active) and the GI50 (HCC 2998) was 481 nM (active). The GI50 (UACC-62) was 242 nM (active), the GI50 (MCF7) was 46.7 nM (active) and the GI50 (A498) was 510 nM (active). The GI50 (BT-549) was 304 nM (active), the GI50 (T47D) was 159 nM (active) and the GI50 (NCI-H522) was 190 nM (active). The GI50 (NCI-H23) was 201 nM (active), the GI50 (NCI-H460) was 35.5 nM (active) and the GI50 (COLO 205) was 474 nM (active). For the same compound, the GI50 (EKVX) was 693 nM (active), the GI50 (A549) was 206 nM (active) and the GI50 (M19-MEL) was 302 nM (active). For the same compound, the GI50 (SK-MEL-28) was 973 nM (active), the GI50 (SW-620) was 136 nM (active) and the GI50 (SNB-78) was 658 nM (active). For the same compound, the GI50 (SR) was 19.9 nM (active).
